Test results reported in ChEMBL document CHEMBL3217618, “The use of phosphate bioisosteres in medicinal chemistry and chemical biology” (Medchemcomm, 2012).
Numbered stars: 1 amine (or outer) side, 2 acyl side, 3 side chain; on linkers, the order of the positions; unused ones are H or OH. Square brackets hold non-standard residues; d marks the D form. Peptide text beside a SMILES is read from it. X1 = NS(=O)(=O)Cc1ccc(C[C@H](N[*:1])C(=O)[*:2])cc1

How the values were obtained:
[1] = Inhibition of Bacillus anthracis PIsY1
[2] = Inhibition of Streptococcus pneumoniae PIsY1
[3] = molecular target: Growth factor receptor-bound protein 2 (Homo sapiens, UniProt P62993); assay: Binding affinity to SH2 domain of GRB2 (unknown origin) by surface plasmon resonance assay
Growth factor receptor-bound protein 2, sequence (P62993 whole entry, the tested form may be a part): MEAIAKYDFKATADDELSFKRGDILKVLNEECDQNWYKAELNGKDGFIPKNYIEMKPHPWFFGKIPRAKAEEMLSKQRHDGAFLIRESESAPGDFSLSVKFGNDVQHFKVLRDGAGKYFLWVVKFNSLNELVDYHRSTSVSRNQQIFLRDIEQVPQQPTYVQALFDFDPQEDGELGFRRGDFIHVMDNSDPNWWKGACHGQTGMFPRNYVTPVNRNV

[4] = Agonist activity at INSP3R in MFF assessed as calcium influx; design: species or system Mus musculus
[5] = molecular target: T1, Tyrosine-protein phosphatase non-receptor type 1 (Homo sapiens) (UniProt P18031); assay: Inhibition of PTP1B (unknown origin) at 11 uM
T1 sequence (whole entry): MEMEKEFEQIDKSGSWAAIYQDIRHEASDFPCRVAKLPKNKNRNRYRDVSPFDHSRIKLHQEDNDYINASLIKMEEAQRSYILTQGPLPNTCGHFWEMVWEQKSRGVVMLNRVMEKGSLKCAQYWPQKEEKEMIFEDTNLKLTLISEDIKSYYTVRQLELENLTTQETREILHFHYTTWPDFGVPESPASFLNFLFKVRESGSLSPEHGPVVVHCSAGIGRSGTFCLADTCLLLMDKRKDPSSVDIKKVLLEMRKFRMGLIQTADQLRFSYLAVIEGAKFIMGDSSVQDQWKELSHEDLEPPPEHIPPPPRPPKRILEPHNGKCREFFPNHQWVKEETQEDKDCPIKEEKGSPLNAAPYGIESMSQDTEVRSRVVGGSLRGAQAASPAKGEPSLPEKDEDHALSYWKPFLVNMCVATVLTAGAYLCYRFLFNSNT

[6] = Inhibition of Yersinia pestis protein tyrosine phosphatase

## CCCCCCCCCCCCCCCC(=O)CP(=O)(O)O
[1]
  IC50: 90 µM

## CCCCCCCC/C=C/CCCCCCCC(=O)NS(=O)(=O)NCCC
[1]
  IC50: 200 µM

## CCCCCC/C=C/CCCCCCCCCC(=O)NP(=O)(O)O
[2]
  IC50: 11 µM

## Cc1ccc2c(ccn2C[C@@H]2C/C=C\C[C@H](c3ccc(CP(C)(=O)O)cc3)[C@H](CC(=O)O)C(=O)NC3(CCCCC3)C(=O)N[C@@H](CC(N)=O)C(=O)NC2)c1
[3]
  Kd: 0.0162 µM

## COP(=O)(O)O[C@@H]1[C@@H](O)[C@H](OP(=O)(O)O)[C@H](O)[C@H](O)[C@H]1OP(=O)(O)O
[4]
  IC50: 9.7 µM

## CCCCCNC(=O)[C@H](Cc1ccc(OC(C(=O)O)C(=O)O)cc1)NC(=O)CCC(=O)O
[5]
  inhibition: 80%

## CCCCCCCCCCCCCCCC(=O)C(F)(F)P(=O)(O)O
[2]
  IC50: 39 µM
[1]
  IC50: 50 µM

## CCCCCCCCCCCCCCCC(=O)NS(=O)(=O)Oc1ccc(OC)cc1
[1]
  IC50: 35 µM

## CC(=O)N[C@@H](CC(=O)O)C(=O)N[C@@H](C)C(=O)N[C@@H](CC(=O)O)C(=O)N[C@@H](CCC(=O)O)C(=O)N[C@@H](Cc1ccc(CS(N)(=O)=O)cc1)C(=O)N[C@@H](CC(C)C)C(N)=O (Ac-DADE[X1]L-NH2)
[6]
  IC50: 0.37 µM
